Measured values published in PubChem BioAssay (NCI).
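Values below derive from 48-hour exposures of cells grown in 96-well plates, with endpoints linearly interpolated between the two concentrations bracketing the appropriate inhibition level. TGI: total growth inhibition.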

Assays:
Assay in all cases: DTP human tumour cell line panel, 48 h
RPMI-8226 leukemia = test system: RPMI-8226 leukemia
SK-OV-3 ovarian = test system: SK-OV-3 ovarian
UACC-62 melanoma = test system: UACC-62 melanoma
MDA-MB-231 breast = test system: MDA-MB-231 breast
MCF7 breast = test system: MCF7 breast
SF-295 CNS = test system: SF-295 CNS
RXF 393 renal = test system: RXF 393 renal
NCI-H226 lung = test system: NCI-H226 lung
SK-MEL-5 melanoma = test system: SK-MEL-5 melanoma
SR leukemia = test system: SR leukemia
HCC-2998 colon = test system: HCC-2998 colon
LOX IMVI melanoma = test system: LOX IMVI melanoma
SF-268 CNS = test system: SF-268 CNS
786-0 renal = test system: 786-0 renal
SK-MEL-2 melanoma = test system: SK-MEL-2 melanoma
TK-10 renal = test system: TK-10 renal
MALME-3M melanoma = test system: MALME-3M melanoma
OVCAR-4 ovarian = test system: OVCAR-4 ovarian
CAKI-1 renal = test system: CAKI-1 renal
HOP-62 NSCLC = test system: HOP-62 NSCLC
SK-MEL-28 melanoma = test system: SK-MEL-28 melanoma
UO-31 renal = test system: UO-31 renal
MOLT-4 leukemia = test system: MOLT-4 leukemia
M14 melanoma = test system: M14 melanoma
U251 CNS = test system: U251 CNS
HOP-92 NSCLC = test system: HOP-92 NSCLC
PC-3 prostate = test system: PC-3 prostate
A498 renal = test system: A498 renal
BT-549 breast = test system: BT-549 breast
IGROV1 ovarian = test system: IGROV1 ovarian
HCT-116 colon = test system: HCT-116 colon
NCI/ADR-RES ovarian = test system: NCI/ADR-RES ovarian
K-562 leukemia = test system: K-562 leukemia
UACC-257 melanoma = test system: UACC-257 melanoma
MDA-N = test system: MDA-N
HCT-15 colon = test system: HCT-15 colon
NCI-H522 lung = test system: NCI-H522 lung
DU-145 prostate = test system: DU-145 prostate
NCI-H23 lung = test system: NCI-H23 lung
KM12 colon = test system: KM12 colon
HT29 colon = test system: HT29 colon
COLO 205 colon = test system: COLO 205 colon
HS 578T breast = test system: HS 578T breast
NCI-H460 lung = test system: NCI-H460 lung
OVCAR-5 ovarian = test system: OVCAR-5 ovarian
SNB-19 CNS = test system: SNB-19 CNS
EKVX NSCLC = test system: EKVX NSCLC
A549 NSCLC = test system: A549 NSCLC
MDA-MB-435 = test system: MDA-MB-435
SN12C renal = test system: SN12C renal
ACHN renal = test system: ACHN renal
OVCAR-8 ovarian = test system: OVCAR-8 ovarian
SF-539 CNS = test system: SF-539 CNS
SW-620 colon = test system: SW-620 colon
T-47D breast = test system: T-47D breast
CCRF-CEM leukemia = test system: CCRF-CEM leukemia
OVCAR-3 ovarian = test system: OVCAR-3 ovarian
HL-60(TB) leukemia = test system: HL-60(TB) leukemia
SNB-75 CNS = test system: SNB-75 CNS

Measured: TGI

COC(=O)/C(=C(\C)NC(C)=O)c1c(C(=O)OC)[nH]c2ccccc12
not listed: SNB-75 CNS
> 100 µM: all other assays above

O=C(NNc1cn[nH]c(=O)n1)c1cccc2nc3ccccc3nc12
60.1 µM: ACHN renal
26.5 µM: SR leukemia
67 µM: TK-10 renal
56.8 µM: RXF 393 renal
27.9 µM: MOLT-4 leukemia
84.3 µM: MDA-MB-231 breast
not listed: HOP-62 NSCLC | UO-31 renal | NCI-H522 lung | SNB-75 CNS
> 100 µM: all other assays above

COC(=O)c1c(O)ccc2c1c1c(n2CCc2ccccc2)C(=O)c2ccccc2C1=O
32.8 µM: SNB-19 CNS
23.1 µM: UO-31 renal
22.1 µM: OVCAR-8 ovarian
23.3 µM: HCT-116 colon
31.5 µM: A498 renal
30.2 µM: MCF7 breast
27.1 µM: HT29 colon
31 µM: 786-0 renal
30.3 µM: M14 melanoma | SW-620 colon
30 µM: SK-MEL-28 melanoma
24.8 µM: MDA-N
28.8 µM: SF-268 CNS
31.4 µM: HOP-92 NSCLC
50.8 µM: CCRF-CEM leukemia
23.6 µM: NCI/ADR-RES ovarian
25.6 µM: NCI-H23 lung
20.7 µM: OVCAR-4 ovarian
40.7 µM: DU-145 prostate
22.7 µM: SR leukemia | NCI-H522 lung
24.5 µM: ACHN renal
18 µM: NCI-H460 lung
22.6 µM: A549 NSCLC
37.7 µM: OVCAR-5 ovarian
32.1 µM: RPMI-8226 leukemia
29.7 µM: MDA-MB-231 breast
24.1 µM: TK-10 renal
36.2 µM: SF-295 CNS
29.6 µM: MALME-3M melanoma | BT-549 breast
32.3 µM: SK-OV-3 ovarian | UACC-257 melanoma
36.5 µM: EKVX NSCLC
26.4 µM: KM12 colon
25.8 µM: K-562 leukemia
25.3 µM: SK-MEL-5 melanoma
38.4 µM: LOX IMVI melanoma
20.8 µM: T-47D breast
17.3 µM: MOLT-4 leukemia
4.96 µM: HCC-2998 colon
30.8 µM: SF-539 CNS
29.8 µM: SK-MEL-2 melanoma
20.6 µM: MDA-MB-435
37.9 µM: HL-60(TB) leukemia
19.9 µM: OVCAR-3 ovarian
3.24 µM: COLO 205 colon
36.6 µM: HOP-62 NSCLC
34.9 µM: RXF 393 renal
36.4 µM: HS 578T breast
25.4 µM: PC-3 prostate
26.8 µM: U251 CNS
27.5 µM: CAKI-1 renal
34.1 µM: NCI-H226 lung
24.9 µM: IGROV1 ovarian | HCT-15 colon | SN12C renal

O=C(c1ccccc1)c1ccc2nc(-c3c(Cl)c(Cl)c(Cl)c(Cl)c3C(=O)N/N=C\C=C\c3ccccc3)[nH]c2c1
95.3 µM: RXF 393 renal
86.8 µM: CCRF-CEM leukemia
84.8 µM: OVCAR-3 ovarian
64 µM: RPMI-8226 leukemia
97.4 µM: SR leukemia
not listed: UACC-62 melanoma | HCC-2998 colon | A498 renal | NCI-H460 lung
> 100 µM: all other assays above
